Tests used:
[1] = biological target: T1, human full-length glucocorticoid receptor (Homo sapiens, UniProt P04150); experiment: Glucocorticoid Receptor Binding Assay (II), fluorescence polarization competitor kit (Fluormone GS1); conditions: cell lysate with recombinant human full-length GR
T1 construct: recombinantly expressed human full-length glucocorticoid receptor; purchased PanVera Co., Madison, Wis; P2816
T1 sequence (P04150 1-777): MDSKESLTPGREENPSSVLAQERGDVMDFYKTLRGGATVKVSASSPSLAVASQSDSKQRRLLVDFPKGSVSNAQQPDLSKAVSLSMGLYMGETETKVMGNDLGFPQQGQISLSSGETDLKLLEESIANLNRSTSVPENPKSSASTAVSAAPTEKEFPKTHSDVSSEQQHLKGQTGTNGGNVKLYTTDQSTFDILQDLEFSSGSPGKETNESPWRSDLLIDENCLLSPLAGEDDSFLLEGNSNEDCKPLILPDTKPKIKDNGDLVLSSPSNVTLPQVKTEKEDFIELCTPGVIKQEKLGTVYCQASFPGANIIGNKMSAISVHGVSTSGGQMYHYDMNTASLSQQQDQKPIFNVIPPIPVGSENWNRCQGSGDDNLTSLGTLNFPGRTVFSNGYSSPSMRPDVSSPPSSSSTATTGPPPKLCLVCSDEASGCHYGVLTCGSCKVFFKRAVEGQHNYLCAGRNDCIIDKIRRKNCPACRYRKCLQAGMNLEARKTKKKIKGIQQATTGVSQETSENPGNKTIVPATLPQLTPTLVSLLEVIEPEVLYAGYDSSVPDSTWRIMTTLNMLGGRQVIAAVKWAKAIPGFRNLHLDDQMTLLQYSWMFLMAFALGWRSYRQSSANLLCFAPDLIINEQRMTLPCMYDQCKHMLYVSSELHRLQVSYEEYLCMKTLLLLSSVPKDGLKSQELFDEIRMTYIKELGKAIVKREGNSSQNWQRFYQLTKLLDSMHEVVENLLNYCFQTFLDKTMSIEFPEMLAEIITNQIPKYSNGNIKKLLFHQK
Protocol: In order to measure the binding of compounds on the glucocorticoid receptor a commercially available kit was used (Glucocorticoid receptor competitor assay kit, PanVera Co., Madison, Wis., P2816). Briefly, a cell lysate containing recombinantly expressed human full-length glucocorticoid receptor was mixed with a fluorescently labeled glucocorticoid (1 nM Fluormone GS1) in the presence or absence of test compound. After one hour at room temperature, the fluorescence polarization (FP) of the samples were measured. […] Test molecules were analyzed in the concentration range from 2.4 nM to 40 microMolar.

[2] = system: AP-1 induced transcriptional activity; experiment: Cellular Transrepressional Assay (AP-1 luciferase reporter in A549 cells, PMA-activated); format: cell-based; conditions: Homo sapiens, A549, 7 h, pAP-1-Luc, 10 ng/ml PMA, read-out: AP-1 (EC50, nM) (Cellular Transrepression Assay)
Method in brief: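 A549 cells stably carrying a 7×AP-1-luciferase reporter, stimulated with 10 ng/ml PMA with or without compound (0.1 nM-40 μM) for 7 h. Luciferase luminescence read 10 min after reagent addition; repression is percentage decrease of PMA-alone signal, EC50 by curve fitting.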

[3] = biological target: T2, human glucocorticoid receptor (Homo sapiens, UniProt P04150); experiment: Glucocorticoid Receptor Binding Assay (I), fluorescence polarization competitor kit (Fluormone GS Red); conditions: purified human recombinant full-length GR
T2 construct: purified human recombinant full-length glucocorticoid receptor (2 nM); purchased Invitrogen Part # 2893
T2 sequence (P04150 1-777): T1 sequence (P04150 1-777)
Method in brief: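 Fluorescence polarization competition: full-length recombinant human GR (2 nM) incubated with 1 nM Fluormone GS Red plus test compound (8.5E-05 to 5 μM) for 2 h at room temperature in the dark before FP read-out.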

Structure (SMILES): CC(C)(CNC(=O)NCC(F)(F)F)[C@@H](c1ccccc1)c1ccc2c(cnn2-c2ccc(F)cc2)c1 [Example 8, (S)-1-(3-(1-(4-fluorophenyl)-1H-indazol-5-yl)-2,2-dimethyl-3-phenylpropyl)-3-(2,2,2-trifluoroethyl)urea]
- Ki [1]: 9 nM
- EC50 [2]: 48 nM
- Ki [3]: 17 nM

Structure (SMILES): CC(C)(C)NC(=O)NCC(C)(C)[C@@H](c1ccccc1)c1ccc2c(cnn2-c2ccc(F)cc2)c1 [Example 9, (S)-1-tert-butyl-3-(3-(1-(4-fluorophenyl)-1H-indazol-5-yl)-2,2-dimethyl-3-phenylpropyl)urea]
- Ki [1]: 5.6 nM
- EC50 [2]: 29 nM
- Ki [3]: 8.3 nM

Structure (SMILES): CC(C)CC(c1ccc2c(cnn2-c2ccc(F)cc2)c1)C(C)(C)CNC(=O)NC1CC1 (stereo not drawn) [Example 26, 1-cyclopropyl-3-(3-(1-(4-fluorophenyl)-1H-indazol-5-yl)-2,2,5-trimethylhexyl)urea]
- Ki [1]: 8.6 nM
- EC50 [2]: 965 nM
- Ki [3]: 3.1 nM

Structure (SMILES): CC(C)CC(c1ccc2c(cnn2-c2ccc(F)cc2)c1)C(C)(C)CNC(=O)NC1CCC1 (stereo not drawn) [Example 27, 1-cyclobutyl-3-(3-(1-(4-fluorophenyl)-1H-indazol-5-yl)-2,2,5-trimethylhexyl)urea]
- Ki [1]: 6.4 nM
- EC50 [2]: 219 nM
- Ki [3]: 4.6 nM

Structure (SMILES): CC(C)CC(c1ccc2c(cnn2-c2ccc(F)cc2)c1)C(C)(C)CNC(=O)NC(C)(C)C (stereo not drawn) [Example 28, 1-tert-butyl-3-(3-(1-(4-fluorophenyl)-1H-indazol-5-yl)-2,2,5-trimethylhexyl)urea]
- Ki [1]: 4.9 nM
- EC50 [2]: 21 nM
- Ki [3]: 4.2 nM

Structure (SMILES): CC(C)CC(c1ccc2c(cnn2-c2ccc(F)cc2)c1)C(C)(C)CNC(=O)NC(C)(C)CO (stereo not drawn) [Example 29, 1-(3-(1-(4-fluorophenyl)-1H-indazol-5-yl)-2,2,5-trimethylhexyl)-3-(1-hydroxy-2-methylpropan-2-yl)urea]
- Ki [1]: 8 nM
- EC50 [2]: 86 nM
- Ki [3]: 2.5 nM

Structure (SMILES): CC(C)CC(c1ccc2c(cnn2-c2ccc(F)cc2)c1)C(C)(C)CNC(=O)N1CCCC(C)(C)C1 (stereo not drawn) [Example 30, N-(3-(1-(4-fluorophenyl)-1H-indazol-5-yl)-2,2,5-trimethylhexyl)-3,3-dimethylpiperidine-1-carboxamide]
- Ki [1]: 27 nM
- EC50 [2]: > 10000 nM
- Ki [3]: 8.5 nM

Structure (SMILES): CC(C)CC(c1ccc2c(cnn2-c2ccc(F)cc2)c1)C(C)(C)CNC(=O)N(C)C(C)(C)C (stereo not drawn) [Example 31, 1-tert-butyl-3-(3-(1-(4-fluorophenyl)-1H-indazol-5-yl)-2,2,5-trimethylhexyl)-1-methylurea]
- Ki [1]: 19 nM
- EC50 [2]: 394 nM
- Ki [3]: 28 nM

Structure (SMILES): CC(C)CC(c1ccc2c(cnn2-c2ccc(F)cc2)c1)C(C)(C)CNC(=O)NC(C)(C)CN1CCCCC1 (stereo not drawn) [Example 32, 1-(3-(1-(4-fluorophenyl)-1H-indazol-5-yl)-2,2,5-trimethylhexyl)-3-(2-methyl-1-(piperidin-1-yl)propan-2-yl)urea]
- Ki [1]: 452 nM
- EC50 [2]: > 10000 nM
- Ki [3]: 73 nM

Structure (SMILES): CC(C)CC(c1ccc2c(cnn2-c2ccc(F)cc2)c1)C(C)(C)CNC(=O)NC(C)C (stereo not drawn) [Example 34, 1-(3-(1-(4-fluorophenyl)-1H-indazol-5-yl)-2,2,5-trimethylhexyl)-3-isopropylurea]
- Ki [1]: 7.1 nM
- EC50 [2]: 129 nM
- Ki [3]: 1.1 nM

Structure (SMILES): CC(C)CC(c1ccc2c(cnn2-c2ccc(F)cc2)c1)C(C)(C)CNC(=O)OCC(F)(F)F (stereo not drawn) [Example 60, 2,2,2-trifluoroethyl 3-(1-(4-fluorophenyl)-1H-indazol-5-yl)-2,2,5-trimethylhexylcarbamate]
- Ki [1]: 24 nM
- EC50 [2]: 234 nM
- Ki [3]: 41 nM

Structure (SMILES): CC(C)(C(c1ccccc1)c1ccc2c(cnn2-c2ccc(F)cc2)c1)C(O)C1CC1 (stereo not drawn) [Example 122, 1-cyclopropyl-3-(1-(4-fluorophenyl)-1H-indazol-5-yl)-2,2-dimethyl-3-phenylpropan-1-ol]
- Ki [1]: 34 nM
- EC50 [2]: > 10000 nM
- Ki [3]: 37 nM

From US8198311B2, “Modulators of glucocorticoid receptor, AP-1, and/or NF-κB activity and use thereof” (Bristol-Myers Squibb Company, priority 2006, dated 2012)
